Test results from patent US5220018A, “Cholecystokinin antagonists” (Merck & Co., Inc., priority 1992, dated 1993).
Read-outs that look alike come from different tables or passages of the source.

Key:
CCK Receptor (Pancreas) = biological target: T1, CCK Receptor (Pancreas) (Rattus norvegicus, UniProt P30551); assay: biochemical; type: binding, Male Sprague-Dawley rats
T1 construct: The whole pancreas was dissected free of fat tissue and was homogenized; from tissue; host or cells: rat whole pancreas, homogenate membranes
T1 sequence (P30551 1-444): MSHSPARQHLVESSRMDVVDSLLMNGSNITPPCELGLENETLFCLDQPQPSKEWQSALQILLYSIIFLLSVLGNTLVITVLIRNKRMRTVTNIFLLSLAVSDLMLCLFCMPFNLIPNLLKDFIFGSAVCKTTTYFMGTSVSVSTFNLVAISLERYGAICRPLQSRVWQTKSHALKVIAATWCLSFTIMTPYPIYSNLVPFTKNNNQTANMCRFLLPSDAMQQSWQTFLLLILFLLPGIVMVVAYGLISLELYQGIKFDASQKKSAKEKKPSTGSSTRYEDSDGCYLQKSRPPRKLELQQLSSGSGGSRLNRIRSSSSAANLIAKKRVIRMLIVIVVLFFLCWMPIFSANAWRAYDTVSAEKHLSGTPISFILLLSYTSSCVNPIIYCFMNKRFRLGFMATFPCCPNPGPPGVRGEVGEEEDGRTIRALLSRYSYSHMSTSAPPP
Method: 1. CCK Receptor Binding (Pancreas)
CCK-8 sulphated was radiolabelled with ^125 I-Bolton Hunter reagent (2000 Ci/mmole). Receptor binding was performed according to Chang and Lotti (Proc. Natl. Acad. Sci. 83, 4923-4926, 1986) with minor modifications.
Male Sprague-Dawley rats (150-200 g) were sacrificed by decapitation. The whole pancreas was dissected free of fat tissue and was homogenized in 25 volumes of ice-cold 10 mM Hepes buffer with 0.1% soya bean trypsin inhibitor (pH 7.4 at 25° C.) with a Kinematica Polytron. The homogenates were centrifuged at 47,800 g for 10 min. Pellets were resuspended in 10 volumes of binding assay buffer (20 mM Hepes, 1 mM EGTA, 5 mM MgCl2, 150 mM NaCl, bacitracin 0.25 mg/ml, soya bean trypsin inhibitor 0.1 mg/ml, and bovine serum albumin 2 mg/ml, pH 6.5 at 25° C.) using a teflon homogenizer, 15 strokes at 500 rpm. The homogenate was further diluted in binding assay buffer to give a final concentration of 0.5 mg original wet weight/1 ml buffer. […] All assays were run in duplicate. The reaction mixtures were incubated at 25° C. for 2 hours and the reaction terminated by rapid filtration (Brandell 24 well cell harvester) over Whatman GF/C filters, washing 3×4 mls with ice-cold 100 mM NaCl. The radioactivity on the filters was counted with a LKB gamma counter.
(§1) Drug displacement studies were performed with at least 10 concentrations of compounds of formula 1 and the IC50 values were determined by regression analysis.

CCK Receptor (Brain) = biological target: T2, CCK Receptor (Brain) (Cavia porcellus, UniProt H0VZC5); assay: CCK Receptor Binding (Brain), inhibition of 125I-CCK-8 binding; design: species or system Male Hartley guinea pigs
T2 construct: the cortex was removed and homogenized in 25 mL ice-cold 0.32M sucrose; from tissue; host or cells: guinea pig cerebral cortex, P2 membrane pellet
T2 sequence (H0VZC5 1-426): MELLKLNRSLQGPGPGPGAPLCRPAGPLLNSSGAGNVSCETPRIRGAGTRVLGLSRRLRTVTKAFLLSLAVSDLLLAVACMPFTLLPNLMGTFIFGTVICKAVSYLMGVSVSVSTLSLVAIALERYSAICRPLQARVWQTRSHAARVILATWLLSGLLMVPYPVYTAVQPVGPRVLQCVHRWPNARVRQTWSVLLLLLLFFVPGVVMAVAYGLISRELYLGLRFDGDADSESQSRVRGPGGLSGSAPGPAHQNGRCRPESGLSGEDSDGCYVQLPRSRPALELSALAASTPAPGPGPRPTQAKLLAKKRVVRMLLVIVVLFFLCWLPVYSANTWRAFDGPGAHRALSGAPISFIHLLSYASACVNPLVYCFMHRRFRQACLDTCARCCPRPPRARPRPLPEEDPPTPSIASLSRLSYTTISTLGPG
Method: 2. CCK Receptor Binding (Brain)
CCK-8 sulphated was radiolabelled and the binding was performed according to the description for the pancreas method with minor modifications.
Male Hartley guinea pigs (300-500 g) were sacrificed by decapitation and the cortex was removed and homogenized in 25 mL ice-cold 0.32M sucrose. The homogenates were centrifuged at 1000 g for 10 minutes and the resulting supernatant was recentrifuged at 20,000 g for 20 minutes. […] All assays were run in duplicate. The reaction mixtures were incubated at 25° C. for 2 hours and then the reaction was terminated on Whatman GF/C filters by rapid filtration (Brandell 24 well cell Harvester) with 3×5 ml washes of cold 100 mM NaCl. The radioactivity on the filters was then counted with a LKB gamma counter.
as §1

[1] = rat pancreas membranes, 125I-CCK-8 50 pM, 25° C., 2 hours, read-out: IC50, 125I-CCK Pancreas
[2] = guinea pig cortex membranes, 125I-CCK-8 50 pM, 25° C., 2 hours, read-out: IC50, 125I-CCK Brain

| Structure (SMILES) | IC50 (CCK Receptor (Pancreas); [1]) [nM] | IC50 (CCK Receptor (Brain); [2]) [nM] | IC50 (CCK Receptor (Pancreas)) [nM] | IC50 (CCK Receptor (Brain)) [nM] |
| --- | --- | --- | --- | --- |
| O=C(Nc1cccc(-c2nnn[nH]2)c1)N[C@@H]1N=C(c2ccccc2)c2ccccc2N(CC2CC2)C1=O [Example 20, N-{1,3-Dihydro-1-cyclopropylmethyl-2-oxo-5-phenyl-1H-1,4-benzodiazepin-3-yl}-N'-{[3-(1H-tetrazol-5-yl)phenyl]urea}] | 870000 | 0.4 |  |  |
| CN1C(=O)[C@H](NC(=O)Nc2ccc3[nH]nnc3c2)N=C(c2ccccc2)c2ccccc21 [Example 13] |  | 19 | 1500 |  |
| CCCN1C(=O)[C@H](NC(=O)Nc2cccc(-c3nnn[nH]3)c2)N=C(c2ccccc2)c2ccccc21 [Example 18, N-{1,3-Dihydro-1-n-propyl-2-oxo-5-phenyl-1H-1,4-benzodiazepin-3-yl}-N'-{[3-(1H-tetrazol-5-yl)phenyl]urea}] | 1100 | 0.067 |  |  |
| O=C(Nc1cccc(-c2noc(=O)[nH]2)c1)N[C@@H]1N=C(c2ccccc2)c2ccccc2N(CC2CC2)C1=O [Example 35, N-{1,3-Dihydro-1-cyclopropylmethyl-2-oxo-5-phenyl-1H-1,4-benzodiazepin-3-yl}-N'-{[3-(1,2,4-oxadiazol-5-one)phenyl]urea}] | 190 | 0.09 |  |  |
| CN1C(=O)[C@H](NC(=O)Nc2cccc(N)c2)N=C(c2ccccc2)c2ccccc21 [Example 9, N-{1,3-Dihydro-1-methyl-2-oxo-5-phenyl-1H-1,4-benzodiazepin-3-yl}-N'-{[3-(amino)phenyl]urea}] | > 3000 | 33 |  |  |
| CN1C(=O)[C@H](NC(=O)Nc2cccc(S(=O)(=O)NC(=O)C(C)(C)C)c2)N=C(c2ccccc2)c2ccccc21 [Example 28, N-{1,3-Dihydro-1-methyl-2-oxo-5-phenyl-1H-1,4-benzodiazepin-3-yl}-N'-{[3-(N-(1,1-dimethylethylcarbonyl)sulfonamido)phenyl]urea}] | > 3000 | 12 |  |  |
| CC(C)NC(=O)NC(=O)c1cccc(NC(=O)N[C@@H]2N=C(c3ccccc3)c3ccccc3N(C)C2=O)c1 [Example 26, N-{1,3-Dihydro-1-methyl-2-oxo-5-phenyl-1H-1,4-benzodiazepin-3-yl}-N'-{[3-(N-(2-propylaminocarbonyl)carboxamido)phenyl]urea}] | > 3000 | 410 |  |  |
| CC(C)S(=O)(=O)NC(=O)c1cccc(NC(=O)N[C@@H]2N=C(c3ccccc3)c3ccccc3N(C)C2=O)c1 [Example 24, N-{1,3-Dihydro-1-methyl-2-oxo-5-phenyl-1H-1,4-benzodiazepin-3-yl}-N'-{[3-(N-(2-propylsulfonyl)carboxamido)phenyl]urea}] | 2400 | 7.6 |  |  |
| CN1C(=O)[C@H](NC(=O)Nc2cccc(C#N)c2)N=C(c2ccccc2)c2ccccc21 [Example 7, N-{1,3-Dihydro-1-methyl-2-oxo-5-phenyl-1H-1,4-benzodiazepin-3-yl}-N'-{[3-(cyano)phenyl]urea}] | 3100 | 27 |  |  |
| COP(=O)(Nc1cccc(NC(=O)N[C@@H]2N=C(c3ccccc3)c3ccccc3N(C)C2=O)c1)OC [Example 11, N-{1,3-Dihydro-1-methyl-2-oxo-5-phenyl-1H-1,4-benzodiazepin-3-yl}-N'-{[3-(dimethylphosphoramido)phenyl]urea}] | 300 | 100 |  |  |
| CC(C)CN1C(=O)C(NC(=O)Nc2cccc(-c3nnn[nH]3)c2)N=C(c2ccccc2F)c2ccccc21 (racemic) [Example 21, N-[3(R,S)-2,3-Dihydro-5-(2-fluorophenyl)-1-(2-methylpropyl)-2-oxo-1H-1,4-benzodiazepin-3-yl]-N'-{[3-(tetrazol-5-yl)phenyl]urea}] | 150 | 1.4 |  |  |
| CN1C(=O)[C@H](NC(=O)Nc2cccc(C(N)=O)c2)N=C(c2ccccc2)c2ccccc21 [Example 10, N-{1,3-Dihydro-1-methyl-2-oxo-5-phenyl-1H-1,4-benzodiazepin-3-yl}-N'-{[3-(aminocarbonyl)phenyl]urea}] | 1360 | 28 |  |  |
| CC(=O)NS(=O)(=O)c1cccc(NC(=O)N[C@@H]2N=C(c3ccccc3)c3ccccc3N(CC3CC3)C2=O)c1 [Example 27, N-{1,3-Dihydro-1-cyclopropylmethyl-2-oxo-5-phenyl-1H-1,4-benzodiazepin-3-yl}-N'-{[3-(N-(acetyl)sulfonamido)phenyl]urea}] | 4600 | 0.55 |  |  |
| CC(=O)NS(=O)(=O)c1cccc(NC(=O)N[C@@H]2N=C(c3ccccc3)c3ccccc3N(C)C2=O)c1 [Example 16, N-{1,3-Dihydro-1-methyl-2-oxo-5-phenyl-1H-1,4-benzodiazepin-3-yl}-N'-{[3-(acetylaminosulfonyl)phenyl]urea}] | > 3000 | 3.9 |  |  |
| CN1C(=O)[C@H](NC(=O)Nc2cccc(C(=O)NS(C)(=O)=O)c2)N=C(c2ccccc2)c2ccccc21 [Example 23, N-{1,3-Dihydro-1-methyl-2-oxo-5-phenyl-1H-1,4-benzodiazepin-3-yl}-N'-{[3-(N-(methanesulfonyl)carboxamido)phenyl]urea}] |  | 12 | 1500 |  |
| CN1C(=O)[C@H](NC(=O)Nc2cccc(S(N)(=O)=O)c2)N=C(c2ccccc2)c2ccccc21 [Example 14, N-{1,3-Dihydro-1-methyl-2-oxo-5-phenyl-1H-1,4-benzodiazepin-3-yl}-N'-{[3-(aminosulfonyl)phenyl]urea}] | 4400 | 74 |  |  |
| CN1C(=O)[C@H](NC(=O)Nc2cccc(-c3n[nH]c(=O)o3)c2)N=C(c2ccccc2)c2ccccc21 [Example 37] | 2460 | 3.62 |  |  |
| CN1C(=O)[C@H](NC(=O)Nc2cccc(-c3nnn(C)n3)c2)N=C(c2ccccc2)c2ccccc21 [Example 33, N-{1,3-Dihydro-1-methyl-2-oxo-5-phenyl-1H-1,4-benzodiazepin-3-yl}-N'-{[3-(2-methyltetrazol-5-yl)phenyl]urea}] |  | 21 | 1600 |  |
| CN1C(=O)[C@H](NC(=O)Nc2cccc(C3=NOS(=O)N3)c2)N=C(c2ccccc2)c2ccccc21 (stereo partly drawn) [Example 36, N-{1,3-Dihydro-1-methyl-2-oxo-5-phenyl-1H-1,4-benzodiazepin-3-yl}-N'-{[3-(1,2,4-oxadiathiazol-5-one)phenyl]urea}] | 1520 | 19.6 |  |  |
| CN1C(=O)[C@H](NC(=O)Nc2cccc(S(=O)(=O)NP(=O)(Oc3ccccc3)Oc3ccccc3)c2)N=C(c2ccccc2)c2ccccc21 [Example 31, N-{1,3-Dihydro-1-methyl-2-oxo-5-phenyl-1H-1,4-benzodiazepin-3-yl}-N'-{[3-(N-(diphenylphosphono)sulfonamido)phenyl]urea}] |  |  | > 3000 | 15 |
| CN1C(=O)[C@H](NC(=O)Nc2cccc(NS(N)(=O)=O)c2)N=C(c2ccccc2)c2ccccc21 [Example 12, N-{1,3-Dihydro-1-methyl-2-oxo-5-phenyl-1H-1,4-benzodiazepin-3-yl}-N'-{[3-(aminosulfonamido)phenyl]urea}] | 530 | 32 |  |  |
